Key:
[1] = (§1) Pharmacokinetic parameters for aspirin and salicylic acid following oral administration of Aspirin,butalbital,caffeine phosphate capsules.; type: ADME, organism-based; set-up: dose 650 mg, route oral; details: human, in vivo, dosed compound id 37, dosed compound name ASPIRIN, tissue Plasma; for half-life: dose 650 mg, route oral
Homo sapiens = assay: as §1; type: ADME, organism-based; set-up: dose 650 mg, route oral; details: in vivo, po, dose 650 mg, dosed compound id 37, dosed compound name ASPIRIN, tissue Plasma

Row | Cmax ([1]; po, 650 mg) [ng/mL] | Tmax (Homo sapiens) [min] | SMILES | half-life [1] [min]
1 | 8800 | 40 | CC(=O)Oc1ccccc1C(=O)O [ASPIRIN] | 12
2 |  |  | O=C(O)c1ccccc1O [SALICYLIC ACID] | 180

Reference: ChEMBL document CHEMBL3832023, “DailyMed|setid=c8b93fc1-472c-4890-8d02-2ee4f7175c22 | BUTALBITAL, ASPIRIN, CAFFEINE AND CODEINE PHOSPHATE- butalbital, aspirin,caffeine and codeine phosphate capsule|Jerome Stevens Pharmaceuticals”
